As a reminder, the IC50 is the midpoint of a concentration-inhibition curve.

Molecules are shown by their SMILES. Entries after “also recorded” stand apart in the source; their conditions may differ.

Assay [1] can be described thus: serum insulin levels / hyperinsulinemia in insulin-resistant mice. In kind it is in vivo, mouse. As to conditions: Het-MλKO mice. The text has this:
Mouse Studies. Brain samples were obtained from normal and insulin-resistant mice and monkeys used previously, and includes mice originally used in studies of insulin signaling and resistance in liver: (a) 4-6 month old C57Bl/6 mice used in studies of high-fat-feeding [USF Vivarium] [6]; 4-6 month-old male C57Bl/6 ob/ob and lean ob+ mice (Jackson Labs, Bar Harbor, Maine); and (c) 10-12 month-old C57Bl/6 Het-MλKO mice [USF Vivarium] [8]. […] Where indicated normal mice were given a single SC injection of saline or saline containing 1.5 mg/kg ICAPP to follow time-related alterations in brain signaling factors. Where indicated, mice were treated intraperitoneally (IP) with insulin (1 U/kg body weight) or vehicle 15-min before euthanization by administration of Xylazine/Ketamine, followed by whole body perfusion with phosphate-buffered saline and rapid removal of brain and other tissues.
Where indicated, mice were randomly treated with insulin (1 unit/kg/bw i.p.) 15 min before being euthanized by administration of xylazine/ketamine, followed by whole-body perfusion with PBS and rapid removal of brain and other tissues.

In the next assay the target is T1, aPKC (Mus musculus, UniProt Q62074).
T1 construct: previously seen in isolated human hepatocytes, mouse adipocytes and recombinant PKC-λ/ι [8,16]; endogenous in cells; host or cells: isolated mouse adipocytes
T1 sequence (Q62074 2-595 limits assumed): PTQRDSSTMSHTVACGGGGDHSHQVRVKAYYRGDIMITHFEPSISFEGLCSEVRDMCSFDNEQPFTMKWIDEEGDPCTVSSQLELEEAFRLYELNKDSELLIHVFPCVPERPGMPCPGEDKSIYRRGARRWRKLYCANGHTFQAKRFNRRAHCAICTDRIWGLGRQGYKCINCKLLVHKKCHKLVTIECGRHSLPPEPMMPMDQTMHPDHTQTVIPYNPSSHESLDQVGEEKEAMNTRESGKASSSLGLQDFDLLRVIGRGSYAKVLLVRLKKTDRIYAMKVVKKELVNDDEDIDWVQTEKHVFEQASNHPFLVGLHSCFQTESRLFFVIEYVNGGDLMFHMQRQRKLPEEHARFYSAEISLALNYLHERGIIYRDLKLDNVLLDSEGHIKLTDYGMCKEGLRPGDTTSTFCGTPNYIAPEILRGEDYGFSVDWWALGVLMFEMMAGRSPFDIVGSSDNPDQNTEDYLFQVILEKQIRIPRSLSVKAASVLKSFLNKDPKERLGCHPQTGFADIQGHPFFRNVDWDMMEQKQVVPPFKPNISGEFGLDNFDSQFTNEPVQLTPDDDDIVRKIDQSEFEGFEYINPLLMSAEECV
The following applies: previously seen, stated as similar; read-out: IC50, inhibition of aPKC activity in mouse adipocytes; cited from earlier work.

`NC(=O)c1ncn([C@@H]2C[C@H](COP(=O)(O)O)[C@@H](O)[C@H]2O)c1N` [ICAPP]: the hyperinsulinemia result in assay [1] was “hyperinsulinemia was corrected; also recorded: fully reversed”. Further, the IC50 at aPKC was 1 to 10 nM.

The values above are taken from patent US11865125B2, “APKC inhibitors and methods of treating a neurodegenerative disease or disorder” (UNIVERSITY OF SOUTH FLORIDA, priority 2016, dated 2024).
